Measured values taken from patent US6964949B2, “Pharmaceutical compositions for promoting the growth of gram-positive bacilli and increasing the acidity in the vagina and the use thereof” (Shanghai Jiao Da Onlly Co., Ltd., priority 2000, dated 2005).

Key:
[1] = system: L. acidophilus, C. albicans, C. tropicalis; assay: Terconazole in Maltose Broth, Group 1 co-culture: turbidity and Gram-stained smear; assay type: cell-based; design: key to Turbidity, Group 1: ++: The cultural fluid was heavily turbid; +: The cultural fluid was turbid; +/−: The turbidity of the cultural fluid was not affirmative; key to Microbes (Gram-stained smear), Group 1: Lb: Lactobacilli; Candida; conditions: 18 hours, 37° C., candle jar
Procedure: (§1) • 1. Materials: • Maltose Broth: 10.0% maltose, 2.0% yeast extract, K2HPO4 0.5%, MgSO4 0.05%, MnSO40.1%, pH adjusted to 6.2, sterilized. • Anti-fungi drug: Terconazole • Clinically isolated Lactobacillus strains: Lactobacillus acidophilus, Lactobacillus crispatus, and Lactobacillus jensenii. Three lactobacillus suspensions were prepared separately from each of these three lactobacillus strains.
(§2) Clinically isolated Candida strains: Candida albicans and Candida tropicalis. Two Candidal suspensions were prepared separately from each of these two candida strains. • 2.
(§3) • There were six tubes in each group and each tube contained 2 ml Maltose Broth and different concentration of Terconazole, as shown in Table 1. • The turbidity values of three lactobacillus suspensions and two Candidal suspensions were tested by Turbidimeter and adjusted to 0.3. 50 ul of each prepared lactobacillus suspension and Candidal suspension were separately added into tubes according to Table 1. • All of these experimental tubes were put into candle jars as soon as the lactobacillus suspensions and candidal suspensions were added, and then incubated at 37° C. for 18 hours. • After 18 hours' incubation the turbidity of each tube was examined and Gram-stained smear of cultural fluid of corresponding tube was observed under microscopy to check microbes. Results

[2] = system: L. crispatus, C. albicans, C. tropicalis; assay: Terconazole in Maltose Broth, Group 2 co-culture: turbidity and Gram-stained smear; assay type: cell-based; design: key to Turbidity, Group 2: ++: The cultural fluid was heavily turbid; +: The cultural fluid was turbid; +/−: The turbidity of the cultural fluid was not affirmative; key to Microbes (Gram-stained smear), Group 2: Lb: Lactobacilli; Candida; conditions: 18 hours, 37° C., candle jar
Procedure: as §1, §2, §3

[3] = system: L. jensenii, C. albicans, C. tropicalis; assay: Terconazole in Maltose Broth, Group 3 co-culture: turbidity and Gram-stained smear; assay type: cell-based, Lactobacillus jensenii, Candida albicans, Candida tropicalis; design: key to Turbidity, Group 3: ++: The cultural fluid was heavily turbid; +: The cultural fluid was turbid; +/−: The turbidity of the cultural fluid was not affirmative; key to Microbes (Gram-stained smear), Group 3: Lb: Lactobacilli; Candida; conditions: 18 hours, 37° C., candle jar
Procedure: as §1, §2, §3

[4] = system: three Lactobacillus strains; assay: Terconazole in Maltose Broth: growth of the three Lactobacillus strains (Groups 1-3); assay type: cell-based; conditions: 400 ug/ml of Terconazole, 18 hours
Procedure: as §1, §2, §3

[5] = system: C. albicans, C. tropicalis; assay: Terconazole in Maltose Broth, Group 4 (Candidal group): turbidity and Gram-stained smear; assay type: cell-based, Candida albicans, Candida tropicalis; design: key to Turbidity, Group 4: ++: The cultural fluid was heavily turbid; +: The cultural fluid was turbid; +/−: The turbidity of the cultural fluid was not affirmative; conditions: 18 hours; for Turbidity, Group 4: 37° C., candle jar
Procedure: as §1, §2, §3

CC(C)N1CCN(c2ccc(OCC3COC(Cn4cncn4)(c4ccc(Cl)cc4Cl)O3)cc2)CC1 (stereo not shown) [Terconazole]
Microbes (Gram-stained smear), Group 1 ([1]; Terconazole 25 ug/ml): Lb
Turbidity, Group 1 ([1]; Terconazole 25 ug/ml): ++
Microbes (Gram-stained smear), Group 1 ([1]; Terconazole 50 ug/ml): Lb
Turbidity, Group 1 ([1]; Terconazole 50 ug/ml): ++
Microbes (Gram-stained smear), Group 1 ([1]; Terconazole 100 ug/ml): Lb
Turbidity, Group 1 ([1]; Terconazole 100 ug/ml): ++
Microbes (Gram-stained smear), Group 1 ([1]; Terconazole 200 ug/ml): Lb
Turbidity, Group 1 ([1]; Terconazole 200 ug/ml): ++
Microbes (Gram-stained smear), Group 1 ([1]; Terconazole 400 ug/ml): Lb
Turbidity, Group 1 ([1]; Terconazole 400 ug/ml): ++
Microbes (Gram-stained smear), Group 2 ([2]; Terconazole 25 ug/ml): Lb
Turbidity, Group 2 ([2]; Terconazole 25 ug/ml): ++
Microbes (Gram-stained smear), Group 2 ([2]; Terconazole 50 ug/ml): Lb
Turbidity, Group 2 ([2]; Terconazole 50 ug/ml): ++
Microbes (Gram-stained smear), Group 2 ([2]; Terconazole 100 ug/ml): Lb
Turbidity, Group 2 ([2]; Terconazole 100 ug/ml): ++
Microbes (Gram-stained smear), Group 2 ([2]; Terconazole 200 ug/ml): Lb
Turbidity, Group 2 ([2]; Terconazole 200 ug/ml): ++
Microbes (Gram-stained smear), Group 2 ([2]; Terconazole 400 ug/ml): Lb
Turbidity, Group 2 ([2]; Terconazole 400 ug/ml): ++
Microbes (Gram-stained smear), Group 3 ([3]; Terconazole 25 ug/ml): Lb
Turbidity, Group 3 ([3]; Terconazole 25 ug/ml): ++
Microbes (Gram-stained smear), Group 3 ([3]; Terconazole 50 ug/ml): Lb
Turbidity, Group 3 ([3]; Terconazole 50 ug/ml): ++
Microbes (Gram-stained smear), Group 3 ([3]; Terconazole 100 ug/ml): Lb
Turbidity, Group 3 ([3]; Terconazole 100 ug/ml): ++
Microbes (Gram-stained smear), Group 3 ([3]; Terconazole 200 ug/ml): Lb
Turbidity, Group 3 ([3]; Terconazole 200 ug/ml): ++
Microbes (Gram-stained smear), Group 3 ([3]; Terconazole 400 ug/ml): Lb
Turbidity, Group 3 ([3]; Terconazole 400 ug/ml): ++
growth of three Lactobacillus strains [4]: didn't inhibit the growth
growth of the two Candidal strains ([5]; 25 ug/ml or greater concentration of Terconazole): inhibited the growth
Turbidity, Group 4 ([5]; Terconazole 25 ug/ml): +/−
Turbidity, Group 4 ([5]; Terconazole 50 ug/ml): +/−
Turbidity, Group 4 ([5]; Terconazole 100 ug/ml): +/−
Turbidity, Group 4 ([5]; Terconazole 200 ug/ml): +/−
Turbidity, Group 4 ([5]; Terconazole 400 ug/ml): +/−
